Data on one substance can be found in PMC12884772, “Macrophagic Sclerostin Loop2‐ApoER2 Interaction Required by Sclerostin for Cardiovascular Protective Action” (Advanced Science, 2025).

One test deals with T1, ApoER2 (Mus musculus, UniProt Q924X6).
T1 construct: FLAG; expressed in transfected cells; host or cells: RAW264.7
T1 sequence (Q924X6 29-996): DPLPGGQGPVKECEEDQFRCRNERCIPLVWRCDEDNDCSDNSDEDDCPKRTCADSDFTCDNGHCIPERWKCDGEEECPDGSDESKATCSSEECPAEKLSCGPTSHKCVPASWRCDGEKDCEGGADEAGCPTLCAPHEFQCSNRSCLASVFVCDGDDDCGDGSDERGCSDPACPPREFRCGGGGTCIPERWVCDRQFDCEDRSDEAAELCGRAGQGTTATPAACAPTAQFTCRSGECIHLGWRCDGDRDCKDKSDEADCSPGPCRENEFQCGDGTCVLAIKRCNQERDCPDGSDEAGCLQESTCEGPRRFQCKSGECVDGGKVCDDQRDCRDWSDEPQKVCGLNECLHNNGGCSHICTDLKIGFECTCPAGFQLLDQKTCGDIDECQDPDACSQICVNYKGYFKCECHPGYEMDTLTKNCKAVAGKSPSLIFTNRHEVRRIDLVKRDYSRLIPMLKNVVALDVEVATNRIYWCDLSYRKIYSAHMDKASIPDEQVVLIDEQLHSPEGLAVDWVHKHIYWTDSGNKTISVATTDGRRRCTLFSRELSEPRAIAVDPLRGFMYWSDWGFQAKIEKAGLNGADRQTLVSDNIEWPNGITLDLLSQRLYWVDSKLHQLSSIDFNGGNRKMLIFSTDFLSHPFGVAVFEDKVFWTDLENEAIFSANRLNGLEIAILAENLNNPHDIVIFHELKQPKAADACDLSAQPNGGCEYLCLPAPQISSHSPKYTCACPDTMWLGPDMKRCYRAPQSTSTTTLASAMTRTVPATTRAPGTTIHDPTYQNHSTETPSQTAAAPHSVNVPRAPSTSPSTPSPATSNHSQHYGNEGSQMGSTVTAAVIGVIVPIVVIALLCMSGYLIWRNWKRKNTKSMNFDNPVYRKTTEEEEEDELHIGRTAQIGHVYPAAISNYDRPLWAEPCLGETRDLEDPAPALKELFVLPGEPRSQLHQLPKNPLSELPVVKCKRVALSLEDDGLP
Put plainly: Confocal microscopy of cell surface binding of sclerostin to ApoER2. In kind it is cell-based. The settings on record: GFP‐ApoER2 overexpressed RAW 264.7, sclerostin 1 µM for 12 h; Figure 6C. The procedure: The interaction of full‐length (FL)/truncated ApoER2 with full‐length (FL) /truncated sclerostin in macrophages (RAW264.7) were determined by pull‐down assay and Co‐IP assay. The binding affinity of ApoER2 to FL sclerostin and sclerostin loop2 were determined by biolayer interferometry (BLI) analysis. Moreover, the binding of sclerostin to ApoER2 on macrophages (RAW264.7) was examined by confocal microscopy.
GFP‐ApoER2 overexpressed RAW 264.7 cells and GFP‐vector overexpressed RAW 264.7 cells were plated in laser confocal dishes (80 000 cells per well) 12 h before the experiment. The recombinant sclerostin was added to make its final concentration 1 µM for 12 h. Cells were washed three times with PBS and then fixed with 4% paraformaldehyde (PFA) in PBS for 15 min, washed three times, blocked in 10% goat serum for 1 h at room temperature and incubated with anti‐sclerostin primary antibody (Thermo, PA5‐113315, 1:100) overnight at 4 °C. Thereafter, cells were washed with PBS three times, then incubated with goat anti‐rabbit IgG H&L (Alexa Fluor 594, 1:200) for 2 h at 37 °C. Hoechst was used to stain the cell nuclei. The fluorescent images were obtained by a confocal microscope (Leica, STELLARIS STED) equipped with a 405 nm laser, a 488 nm laser, and a 594 nm laser.^[ [67] ^]

For test [1], the system named is mouse macrophages (RAW 264.7). Put plainly: LPS‐induced inflammatory responses in mouse macrophages (RAW 264.7), siNC or siLrp8. In kind it is cell-based. The procedure:
To determine whether the suppressive effects of sclerostin on inflammatory responses in macrophages were dependent on ApoER2 in vitro, PMA (100 ng/mL, 48 h)‐induced human differentiated macrophages (THP‐1 cells, Procell Life Science & Technology, CL‐0233) and mouse macrophages (RAW 264.7 cells, ATCC, TIB‐71) were utilized. Human differentiated macrophages or mouse macrophages were divided into 9 groups (n = 3 per group), respectively, including (1) siNC, (2) siNC + LPS, (3) siNC + LPS + SOST 500 nM or 250 nM, (4) siNC + LPS + SOST 1 µM or 500 nM, (5) siNC + LPS + SOST 2 µM or 1 µM, (6) siLrp8 + LPS + SOST 500 nM or 250 nM, (7) siLrp8 + LPS + SOST 1µM or 500 nM, (8) siLrp8 + LPS + SOST 2 µM or 1 µM, (9) siLrp8 + LPS. Cells in groups (6‐9) were transfected with siRNA targeting human/mouse Lrp8 (human siLrp8: Santa Cruz Biotechnology sc‐40097, mouse siLrp8: Santa Cruz Biotechnology sc‐40098), while cells in groups (1‐5) were transfected with empty vector as control (siNC). 24 h later, cells in group (3)/(6), (4)/(7), and (5)/(8) were treated with recombinant human or mouse sclerostin for 3 h at concentration of 500 nM or 250 nM, 1 µM or 500 nM, as well as 2 µM or 1 µM, respectively, while cells in groups (1), (2), and (9) were treated with vehicle. Then, cells in groups (2‐9) were treated with LPS (100 ng/mL or 1 µg/mL) for 18 h. All groups of cell lysates were collected for determining the mRNA expression levels of TNF‐α, MCP‐1, and IL‐10 (human or mouse, respectively) by RT‐PCR.^[ [34] ^] Cell mediums were collected for determining the protein expression/secretion levels of TNF‐α, MCP‐1, and IL‐10 (human or mouse, respectively) by ELISA.^[ [34] ^]
Total RNA was extracted from cells following the protocols of Trizol reagent (Invitrogen, 15 596 026). […] The relative gene expression levels were calculated using the 2^−ΔΔCt method with GAPDH as the reference gene.^[ [40] ^] […]

Where [2] appears, read: RAW 264.7, LPS 1 µg/mL 18 h, recombinant mouse sclerostin 250 nM-1 µM for 3 h, RT‐PCR and ELISA, n = 3.

Consider “sclerostin: recombinant human/mouse full‐length sclerostin protein”, for which the “Cell surface binding of sclerostin to ApoER2” value in the test with ApoER2 is listed as “observed”. In test [1] (setting [2]), the “mRNA expression and protein expression/secretion of IL‐10” value is listed as “promoted”; the “mRNA expression and protein expression/secretion of TNF‐α and MCP‐1” value is listed as “inhibited”. The “Effects of sclerostin on cytokine/chemokine expression/secretion upon Lrp8 silencing” value in test [1] (RAW 264.7 with siLrp8, LPS 1 µg/mL 18 h) is given as “not detected”.
